Experimental data from US20240228510A1, “KRAS G12C INHIBITORS” (Mirati Therapeutics, Inc., priority 2021, published 2024).

Test system: KRas G12C
Assay: Inhibition of KRas G12C-mediated pERK in H358 cells (Phospho-ERK In-Cell Western)
Format: cell-based
Conditions: Homo sapiens; NCI-H358 cells; 3 hours compound; pERK(Thr202/Tyr204) normalized to GAPDH; 4 parameter fit
Protocol: The cellular inhibition of KRAs G12C by exemplary compounds of the present invention was determined by measuring the amount of a downstream marker of KRas activity, phosphorylated ERK (“Phospho-ERK”).
NCI-H358 cells (ATCC CRL-5807) express KRas G12C and were grown in RPMI medium supplemented with 10% fetal bovine serum, penicillin/streptomycin and 10 mM HEPES. Cells were plated in poly-D-Lysine coated 96-well plates at a concentration of 50,000 cells/well and allowed to attach for 8-12 hours. Diluted compounds were then added at a final concentration of 0.5% DMSO. After 3 hours, the medium was removed, 150 μL of 4% formaldehyde was added and the plates were incubated for 20 minutes. The plates were washed with PBS, and permeabilized using 150 μL of ice cold 100% methanol for 10 minutes. Non-specific antibody binding to the plates was blocked using 100 μL Licor Blocking Buffer (Li-Cor Biotechnology, Lincoln NE) for 1 hour at room temperature. Positive control samples and samples lacking cells were parallel processed with test samples as standards.
The amount Phospho-ERK was determined using an antibody specific for the phosphorylated form of ERK and compared to the amount of GAPDH. Primary antibodies used for detection were added as follows: Phospho-ERK (Cell Signaling cs9101) diluted 1:500 and GAPDH (Millipore MAB374) diluted 1:5000 in Licor block+0.05% Tween 20. The plates were incubated for 2 hours at room temperature. The plates were washed with PBS+0.05% Tween 20.
Secondary antibodies used to visualize primary antibodies were added as follows: Anti-rabbit-680 diluted 1:1000 and Anti-mouse-800 diluted 1:1000 in Licor Block+0.05% Tween 20 and incubated for 1 hour at room temperature. The plates were washed with PBS+0.05% Tween 20. A 100 μL aliquot of PBS was added to each well and the plates were read on a LICOR AERIUS plate reader.
The pERK(Thr202/Tyr204) signal was normalized with the GAPDH signal and percent of DMSO control values were calculated. IC50 values were generated using a 4 parameter fit of the dose response curve.

SMILES: C=CC(=O)N1CCN(c2ccnc3c(F)c(-c4cccc5ccc(F)c(Cl)c45)ncc23)CC1 [Example 1, 1-(4-(7-(8-chloro-7-fluoronaphthalen-1-yl)-8-fluoro-1,6-naphthyridin-4-yl)piperazin-1-yl)prop-2-en-1-one]
- IC50: 2740 nM

SMILES: C=CC(=O)N1CCN(c2c(F)cnc3c(F)c(-c4cccc5ccc(F)c(Cl)c45)ncc23)CC1 [Example 2, 1-(4-(7-(8-chloro-7-fluoronaphthalen-1-yl)-3,8-difluoro-1,6-naphthyridin-4-yl)piperazin-1-yl)prop-2-en-1-one]
- IC50: 3050 nM

SMILES: C#Cc1cccc2cccc(-c3ncc4c(N5C[C@@H]6[C@H]5CCN6C(=O)C=C)c(Cl)cnc4c3F)c12 [Example 3, 1-((1R,5R)-6-(3-chloro-7-(8-ethynylnaphthalen-1-yl)-8-fluoro-1,6-naphthyridin-4-yl)-2,6-diazabicyclo[3.2.0]heptan-2-yl)prop-2-en-1-one]
- IC50: 75 nM

SMILES: C=CC(=O)N1CC[C@@H]2[C@H]1CN2c1c(Cl)cnc2c(F)c(-c3cccc4ccc(F)c(Cl)c34)ncc12 [Example 4, 1-((1R,5R)-6-(3-chloro-7-(8-chloro-7-fluoronaphthalen-1-yl)-8-fluoro-1,6-naphthyridin-4-yl)-2,6-diazabicyclo[3.2.0]heptan-2-yl)prop-2-en-1-one]
- IC50: 169 nM

SMILES: C=CC(=O)N1CCN(c2c(C)cnc3c(F)c(-c4cccc5ccc(F)c(Cl)c45)ncc23)CC1 [Example 5, 1-(4-(7-(8-chloro-7-fluoronaphthalen-1-yl)-8-fluoro-3-methyl-1,6-naphthyridin-4-yl)piperazin-1-yl)prop-2-en-1-one]
- IC50: 5000 nM

SMILES: C#Cc1c(F)ccc2cccc(-c3ncc4c(N5C[C@@H]6[C@H]5CCN6C(=O)C=C)c(OC)cnc4c3F)c12 [Example 6, 1-((1R,5R)-6-(7-(8-ethynyl-7-fluoronaphthalen-1-yl)-8-fluoro-3-methoxy-1,6-naphthyridin-4-yl)-2,6-diazabicyclo[3.2.0]heptan-2-yl)prop-2-en-1-one]
- IC50: 22 nM

SMILES: C=CC(=O)N1CCN(c2c(Cl)cnc3c(F)c(-c4cccc5ccc(F)c(Cl)c45)ncc23)CC1 [Example 7, 1-(4-(3-chloro-7-(8-chloro-7-fluoronaphthalen-1-yl)-8-fluoro-1,6-naphthyridin-4-yl)piperazin-1-yl)prop-2-en-1-one]
- IC50: 5910 nM

SMILES: C#Cc1cccc2cc(O)cc(-c3ncc4c(N5C[C@@H]6[C@H]5CCN6C(=O)C=C)c(Cl)cnc4c3F)c12 [Example 8, 1-((1R,5R)-6-(3-chloro-7-(8-ethynyl-3-hydroxynaphthalen-1-yl)-8-fluoro-1,6-naphthyridin-4-yl)-2,6-diazabicyclo[3.2.0]heptan-2-yl)prop-2-en-1-one]
- IC50: 1 nM

SMILES: C=CC(=O)N1CCN(c2c(OC)cnc3c(F)c(-c4cccc5ccc(F)c(Cl)c45)ncc23)CC1 [Example 9, 1-(4-(7-(8-chloro-7-fluoronaphthalen-1-yl)-8-fluoro-3-methoxy-1,6-naphthyridin-4-yl)piperazin-1-yl)prop-2-en-1-one]
- IC50: 9000 nM

SMILES: C=CC(=O)N1CCN(c2c(C#N)cnc3c(F)c(-c4cccc5ccc(F)c(Cl)c45)ncc23)CC1 [Example 10, 4-(4-acryloylpiperazin-1-yl)-7-(8-chloro-7-fluoronaphthalen-1-yl)-8-fluoro-1,6-naphthyridine-3-carbonitrile]
- IC50: 3680 nM

SMILES: C#Cc1c(F)ccc2cccc(-c3ncc4c(N5C[C@@H]6[C@H]5CCN6C(=O)C=C)ccnc4c3F)c12 [Example 11, 1-((1R,5R)-6-(7-(8-ethynyl-7-fluoronaphthalen-1-yl)-8-fluoro-1,6-naphthyridin-4-yl)-2,6-diazabicyclo[3.2.0]heptan-2-yl)prop-2-en-1-one]
- IC50: 17 nM

SMILES: C#Cc1c(F)ccc2cccc(-c3ncc4c(N5C[C@@H]6[C@H]5CCN6C(=O)C=C)c(C#N)cnc4c3F)c12 [Example 12, 4-((1R,5R)-2-acryloyl-2,6-diazabicyclo[3.2.0]heptan-6-yl)-7-(8-ethynyl-7-fluoronaphthalen-1-yl)-8-fluoro-1,6-naphthyridine-3-carbonitrile]
- IC50: 24 nM

SMILES: C#Cc1c(F)ccc2cccc(-c3ncc4c(N5C[C@@H]6[C@H]5CCN6C(=O)C=C)c(Cl)cnc4c3F)c12 [Example 13, 1-((1R,5R)-6-(3-chloro-7-(8-ethynyl-7-fluoronaphthalen-1-yl)-8-fluoro-1,6-naphthyridin-4-yl)-2,6-diazabicyclo[3.2.0]heptan-2-yl)prop-2-en-1-one]
- IC50: 31 nM

SMILES: C#Cc1c(F)ccc2cccc(-c3ncc4c(N5C[C@@H]6[C@H]5CCN6C(=O)C=C)cc(C)nc4c3F)c12 [Example 14, 1-((1R,5R)-6-(7-(8-ethynyl-7-fluoronaphthalen-1-yl)-8-fluoro-2-methyl-1,6-naphthyridin-4-yl)-2,6-diazabicyclo[3.2.0]heptan-2-yl)prop-2-en-1-one]
- IC50: 21 nM

SMILES: C#Cc1c(F)ccc2cccc(-c3ncc4c(N5[C@@H]6CCN(C(=O)C=C)[C@@H]6[C@@H]5C)cc(OC)nc4c3F)c12 [Example 15, 1-((1R,5R,7S)-6-(7-(8-ethynyl-7-fluoronaphthalen-1-yl)-8-fluoro-2-methoxy-1,6-naphthyridin-4-yl)-7-methyl-2,6-diazabicyclo[3.2.0]heptan-2-yl)prop-2-en-1-one]
- IC50: 1440 nM

SMILES: C#Cc1c(F)ccc2cccc(-c3ncc4c(N5[C@@H]6CCN(C(=O)C=C)[C@@H]6[C@@H]5C)cc(C)nc4c3F)c12 [Example 16, 1-((1R,5R,7S)-6-(7-(8-ethynyl-7-fluoronaphthalen-1-yl)-8-fluoro-2-methyl-1,6-naphthyridin-4-yl)-7-methyl-2,6-diazabicyclo[3.2.0]heptan-2-yl)prop-2-en-1-one]
- IC50: 73 nM

SMILES: C=CC(=O)N1CC[C@@H]2[C@H]1CN2c1snc2c(F)c(-c3cccc4ccc(F)c(Cl)c34)ncc12 [Example 17, 1-((1R,5R)-6-(6-(8-chloro-7-fluoronaphthalen-1-yl)-7-fluoroisothiazolo[4,3-c]pyridin-3-yl)-2,6-diazabicyclo[3.2.0]heptan-2-yl)prop-2-en-1-one]
- IC50: 6000 nM

SMILES: C#Cc1cccc2cc(O)cc(-c3ncc4c(N5C[C@@H]6[C@H]5CCN6C(=O)C=C)snc4c3F)c12 [Example 18, 1-((1R,5R)-6-(6-(8-ethynyl-3-hydroxynaphthalen-1-yl)-7-fluoroisothiazolo[4,3-c]pyridin-3-yl)-2,6-diazabicyclo[3.2.0]heptan-2-yl)prop-2-en-1-one]
- IC50: 14 nM

SMILES: C#Cc1cccc2cccc(-c3ncc4c(N5C[C@@H]6[C@H]5CCN6C(=O)C=C)snc4c3F)c12 [Example 19, 1-((1R,5R)-6-(6-(8-ethynylnaphthalen-1-yl)-7-fluoroisothiazolo[4,3-c]pyridin-3-yl)-2,6-diazabicyclo[3.2.0]heptan-2-yl)prop-2-en-1-one]
- IC50: 748 nM

SMILES: C=CC(=O)N1CC2(C1)CN(c1snc3c(F)c(-c4cccc5ccc(F)c(Cl)c45)ncc13)C2 [Example 20, 1-(6-(6-(8-chloro-7-fluoronaphthalen-1-yl)-7-fluoroisothiazolo[4,3-c]pyridin-3-yl)-2,6-diazaspiro[3.3]heptan-2-yl)prop-2-en-1-one]
- IC50: 7000 nM

SMILES: C=CC(=O)N(C)C1CN(c2snc3c(F)c(-c4cccc5ccc(F)c(Cl)c45)ncc23)C1 [Example 21, N-(1-(6-(8-chloro-7-fluoronaphthalen-1-yl)-7-fluoroisothiazolo[4,3-c]pyridin-3-yl)azetidin-3-yl)-N-methylacrylamide]
- IC50: 9000 nM

SMILES: C=CC(=O)N1CC2(CCN(c3snc4c(F)c(-c5cccc6ccc(F)c(Cl)c56)ncc34)CC2)C1 [Example 22, 1-(7-(6-(8-chloro-7-fluoronaphthalen-1-yl)-7-fluoroisothiazolo[4,3-c]pyridin-3-yl)-2,7-diazaspiro[3.5]nonan-2-yl)prop-2-en-1-one]
- IC50: 8000 nM
